Patent US20200069775A1, “BRAIN OSTEOCALCIN RECEPTOR AND COGNITIVE DISORDERS” (The Trustees of Columbia University in the City of New York, priority 2017, published 2020)

Key:
[1] = test system: brainstem neurons (dorsal raphe 5-HT neurons, locus coeruleus, GABAergic interneurons); experiment: Whole cell current clamp recording in brainstem slices; type: cell-based, mouse; conditions: whole cell current clamp
Method: Brain slice preparations and electrophysiological recordings were performed according to methods known in the art. Briefly, WT mice were anesthetized with ether and then decapitated. The brains were rapidly removed and immersed in an oxygenated bath solution at 40° C. containing (in mM): sucrose 220, KCl 2.5, CaCl2 1, MgC12 6, NaH2PO4 1.25, NaHCO3 26, and glucose 10 pH 7.3 with NaOH. Coronal slices (350 μm thick) containing dorsal raphe (DR) were cut on a vibratome and maintained in a holding chamber with artificial cerebrospinal fluid (ACSF) (bubbled with 5% CO2 and 95% O2) containing (in mM): NaCl 124, KCl 3, CaCl2 2, MgCl2 2, NaH2PO4 1.23, NaHCO3 26, glucose 10, pH 7.4 with NaOH, and were transferred to a recording chamber constantly perfused with bath solution (330 C) at 2 ml/min after at least a 1 hr recovery. Whole-cell current clamp was performed to observe action potentials in DR serotoninergic (5-HT) neurons with a Multiclamp 700A amplifier (Axon instrument, CA). Patch pipettes with a tip resistance of 4-6 MΩ were made of borosilicate glass (World Precision Instruments) with a Sutter pipette puller (P-97) and filled with a pipette solution containing (in mM): K-gluconate (or Cs-gluconate) 135, MgCl2 2, HEPES 10, EGTA 1.1, Mg-ATP 2, Na2-phosphocreatine 10, and Na2-GTP 0.3, pH 7.3 with KOH. After a giga-Ohm (GΩ) seal and whole-cell access were achieved, the series resistance (between 20 and 40 MΩ) was partially compensated by the amplifier. […] All data were sampled at 3-10 kHz and filtered at 1-3 kHz with an Apple Macintosh computer using Axograph 4.9 (Axon Instruments). Electrophysiological data were analyzed with Axograph 4.9 and plotted with Igor Pro software (WaveMetrics, Lake Oswego, Oreg.).

Gpr158 = target: T1, Gpr158 (Mus musculus, UniProt Q8C419); experiment: Bdnf expression (qPCR) in WT and Gpr158−/− hippocampal neurons; type: cell-based; design: visually identified pyramidal neurons in the CA3 area of the hippocampus; from tissue; host or cells: coronal hippocampal slices of 3-4 week old male WT and Gpr158-/- mice; conditions: WT vs Gpr158−/− hippocampal neurons, 4 hours
T1 sequence (Q8C419 25-1200): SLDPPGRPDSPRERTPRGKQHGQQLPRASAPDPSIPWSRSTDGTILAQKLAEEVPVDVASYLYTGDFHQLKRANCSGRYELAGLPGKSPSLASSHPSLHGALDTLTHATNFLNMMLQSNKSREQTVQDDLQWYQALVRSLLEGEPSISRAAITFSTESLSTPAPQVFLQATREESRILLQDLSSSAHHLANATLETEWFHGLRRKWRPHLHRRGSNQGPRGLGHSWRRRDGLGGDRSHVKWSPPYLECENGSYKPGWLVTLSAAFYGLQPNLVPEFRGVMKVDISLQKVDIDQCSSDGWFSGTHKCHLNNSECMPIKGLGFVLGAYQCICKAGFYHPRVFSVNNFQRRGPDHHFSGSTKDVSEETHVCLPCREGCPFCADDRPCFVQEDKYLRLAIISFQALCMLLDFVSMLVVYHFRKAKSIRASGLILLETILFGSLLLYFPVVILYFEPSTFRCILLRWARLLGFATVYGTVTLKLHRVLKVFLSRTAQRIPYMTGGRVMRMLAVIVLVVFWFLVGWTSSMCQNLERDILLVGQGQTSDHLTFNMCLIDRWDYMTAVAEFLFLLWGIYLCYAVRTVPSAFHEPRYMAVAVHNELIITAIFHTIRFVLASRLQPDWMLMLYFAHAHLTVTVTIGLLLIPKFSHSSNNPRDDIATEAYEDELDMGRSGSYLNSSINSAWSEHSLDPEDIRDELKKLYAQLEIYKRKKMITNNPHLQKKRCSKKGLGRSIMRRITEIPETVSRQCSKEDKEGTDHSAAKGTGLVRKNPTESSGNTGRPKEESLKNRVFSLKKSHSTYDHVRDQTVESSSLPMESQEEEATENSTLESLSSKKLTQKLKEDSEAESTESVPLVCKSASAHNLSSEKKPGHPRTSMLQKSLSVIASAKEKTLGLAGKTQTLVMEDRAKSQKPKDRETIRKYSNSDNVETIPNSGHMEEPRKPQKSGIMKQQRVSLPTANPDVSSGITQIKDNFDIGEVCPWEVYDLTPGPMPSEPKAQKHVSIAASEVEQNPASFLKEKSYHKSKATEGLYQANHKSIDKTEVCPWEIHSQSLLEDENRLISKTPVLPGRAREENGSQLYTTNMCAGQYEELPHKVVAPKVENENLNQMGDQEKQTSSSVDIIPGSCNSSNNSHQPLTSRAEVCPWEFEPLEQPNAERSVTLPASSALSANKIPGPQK
Method: FIG. 15. Function analysis of Osteocalcin signaling through Gpr158. (Panel a) IP1 accumulation in WT and Gpr158−/− hippocampal neurons (DIV 15) treated with either vehicle or osteocalcin for 1 hour. Glutamate was used as a positive control. (Panel b) Expression (qPCR) of Th and Bdnf in the midbrain of 6 month-old Gpr158+/− and WT littermates. (Panel c) Expression (qPCR) of Bdnf in WT and Gpr158−/− hippocampal neurons (DIV 15) treated with either vehicle or osteocalcin for 4 hours. (Panel d) Osteocalcin's effect on spontaneous action potential (AP) frequency in CA3 pyramidal neurons in WT (4 of 4 cells) and Gpr158−/− mice. The bars above the recording traces indicate the application of osteocalcin. […] Number of entries and time spent (s) in the open arms were scored. […] Time spent in the lit compartment and open arms was measured. […] Total ambulation (cm) and time spent in the center of the arena (s) were measured. […] Preference index (time spent with novel object/total exploration time) was measured. […] Preference index (time spent with novel object/total exploration time) was measured. […] Percent freezing 24 hours after training was measured. […]
RNA was isolated from brain tissue using TRIZOL (Invitrogen). cDNA synthesis was performed following standard protocol, q-PCR analyses were done using specific quantitative PCR primers (sequences available upon request), and expressed relative to Gapdh levels. […]

osteocalcin: Recombinant osteocalcin bacterially produced, cleaved from the GST subunit; completely undercarboxylated at all three sites; full-length mouse osteocalcin (YLGASVPSPDPLEPTREQCELNPACDELSDQYGLKTAYKRIYGITI)
action potential frequency in neurons of the locus coeruleus [1]: decreases it | action potential frequency of brainstem neurons [1]: activates the action potential frequency | action potential frequency of the GABAergic interneurons of the hindbrain [1]: inhibits the action potential frequency | Bdnf expression (Gpr158): increased Bdnf expression in WT significantly more than in Gpr158−/− hippocampal neurons
